Measured values as given in ChEMBL document CHEMBL1201862, “PubChem BioAssay data set” (2004).
Calls of active or inactive are those of the source.

Legend:
[1] = test system: Escherichia coli; experiment: microbe, parasite or virus in culture
[2] = target: Nucleotide-binding oligomerization domain-containing protein 1 (Homo sapiens, UniProt Q9Y239); experiment: blockers of NOD1 pathway activity – revised, SAR follow-up (AID 2333); format: functional
[3] = test system: HEK293; experiment: cells; conditions: Homo sapiens
[4] = target: Tumor necrosis factor (Homo sapiens, UniProt P01375); experiment: analog potency on TNFa NF-kB signaling – cell-based, revised, SAR follow-up (AID 2337); format: functional
[5] = target: CAAX prenyl protease 2 (Homo sapiens, UniProt Q9Y256); experiment: inhibition of Ras-converting CAAX protease Rce1 – biochemical, yeast membranes, quenched-peptide fluorescence, cherry-pick, dose response (AID 588849)
[6] = HIV-1 AD8 envelope cell-cell fusion blockers – cherry-pick, dose response (AID 652062); format: functional, cell-based;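 also: luciferase signal from cell-cell fusion driven by HIV-1 clade B AD8 Env; potency is for inhibitors of fusion seen as a drop in luminescence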
[7] = blockers of HIV-1 ZM109 envelope-driven cell-cell fusion – HeLa effector, CEM target cells, luciferase, cherry-pick, dose response (AID 652058); format: functional, cell-based;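 also: luciferase signal from HIV-1 Env mediated cell-cell fusion of effector and target cells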
[8] = test system: INS1; experiment: INS-1E survival protection against cytokine death – cell-based, luminescence, retest, dose response (AID 449756); format: functional; conditions: Rattus norvegicus;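 also: cell death triggered by IL-1 beta plus TNF-alpha plus IFN-gamma mixture; protective hits raise ATP signal compared with cytokine alone wells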
[9] = potency of ADAM10 substrate cleavage blockers – biochemical, QFRET, dose response (AID 743254);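 also: ADAM10 enzyme with the DM2 quenched FRET peptide as substrate; EDANS fluorescence gain as the protease cuts the substrate; inhibitor potency against ADAM10 proteolytic activity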
[10] = off-target signal loss in HeLa-CEM21 co-culture – HeLa F-luc CTL cells, cherry-picked, counter-screen for HIV-1 Env fusion inhibitor project, dose response (AID 652040); format: functional, cell-based;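 also: potency for signal decrease marking cytotoxic or nonspecific inhibition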
[11] = target: Disintegrin and metalloproteinase domain-containing protein 17 (Homo sapiens, UniProt P78536); experiment: inhibition of ADAM17 substrate cleavage – biochemical, quenched FRET substrate, counter-screen for ADAM10 exosite inhibitor project, dose response (AID 743253)
[12] = blockers of HIV-1 envelope-mediated cell-cell fusion – cherry-pick, dose response (AID 652057); format: functional, cell-based
[13] = viability loss in CEM21 cells – cell-based, CellTiter-Glo luminescence, cherry-picked, cytotoxicity control for viral fusion inhibitor project, dose response (AID 652042); format: functional;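 also: potency for signal decrease meaning cytotoxicity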
[14] = test system: Escherichia coli; experiment: microbe, parasite or virus in culture; remark: listed apart in the source
[15] = target: T1, Tyrosine-protein phosphatase non-receptor type 7 (Homo sapiens, UniProt P35236); format: functional
T1 sequence (P35236 whole entry): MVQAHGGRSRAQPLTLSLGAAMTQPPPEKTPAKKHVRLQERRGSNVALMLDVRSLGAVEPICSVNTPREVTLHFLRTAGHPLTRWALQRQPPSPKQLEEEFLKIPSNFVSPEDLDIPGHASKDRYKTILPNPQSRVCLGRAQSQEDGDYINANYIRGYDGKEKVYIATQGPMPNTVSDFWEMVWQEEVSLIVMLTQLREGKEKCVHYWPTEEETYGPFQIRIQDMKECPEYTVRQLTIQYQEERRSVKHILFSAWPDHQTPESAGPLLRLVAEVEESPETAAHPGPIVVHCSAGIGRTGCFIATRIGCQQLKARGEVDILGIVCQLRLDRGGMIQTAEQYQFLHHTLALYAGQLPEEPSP

[16] = target: T2, Dual specificity protein phosphatase 6 (Rattus norvegicus, UniProt Q64346); format: functional
T2 sequence (Q64346 whole entry): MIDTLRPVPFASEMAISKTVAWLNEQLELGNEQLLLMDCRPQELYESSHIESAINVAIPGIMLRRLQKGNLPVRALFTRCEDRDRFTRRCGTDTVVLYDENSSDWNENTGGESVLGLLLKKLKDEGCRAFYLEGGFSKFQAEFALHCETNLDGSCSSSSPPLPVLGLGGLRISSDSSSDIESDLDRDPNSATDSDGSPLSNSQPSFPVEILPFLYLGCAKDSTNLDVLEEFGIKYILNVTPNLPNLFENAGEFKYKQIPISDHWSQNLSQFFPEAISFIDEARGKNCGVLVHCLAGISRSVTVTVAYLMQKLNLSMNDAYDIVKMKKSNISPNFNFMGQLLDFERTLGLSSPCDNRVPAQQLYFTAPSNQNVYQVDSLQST

[17] = target: Glyceraldehyde-3-phosphate dehydrogenase (Homo sapiens, UniProt P04406)
[18] = target: T2, Dual specificity protein phosphatase 6
[19] = cells; format: functional, cell-based
[20] = Luminescence-based dose response cell-based high throughput screening assay for cytotoxic compounds using the IEC-6 intestinal epithelial cell line. [Related pubchem assays: 1858 (Summary AID.), 1825 (Counterscreen.), 1907 (Confirmation screen.)]; format: functional
[21] = test system: BJ; experiment: BJ-TERT fibroblast viability loss – cell-based, RAS-independent, luminescence, dose response (AID 1933); format: functional; conditions: Homo sapiens
[22] = test system: Streptococcus; experiment: GAS UMAA2166 growth inhibition – luminescence, BacTiterGlo, counter-screen for streptokinase expression inhibitor project, dose response (AID 1915); format: functional, organism-based;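 also: potency for reduction of bacterial viability or growth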
[23] = target: Heat shock protein HSP 90-alpha (Homo sapiens, UniProt P07900); format: functional, organism-based
[24] = Luminescence Cell-Based Dose Response HTS to Identify Inhibitors of 5'UTR Stem-Loop Driven Prion Protein mRNA Translation in H4 Neuroglioblastoma Cells. [Related pubchem assays: 1827 (Project Summary), 1813 (Primary HTS)]; format: functional
[25] = test system: HEK293; experiment: cells; format: functional, cell-based; conditions: Homo sapiens
[26] = Counterscreen for AddAB inhibitors: absorbance-based bacterial cell-based high throughput dose response assay for inhibitors of bacterial viability. [Related pubchem assays (depositor defined):AID435030, AID449728, AID449731, AID488942, AID488955, AID488956]; format: functional
[27] = test system: HEK293; experiment: cells; format: functional, cell-based; conditions: Homo sapiens; remark: listed apart in the source
[28] = cells; format: functional, cell-based; remark: listed apart in the source
[29] = test system: HEK293; experiment: inhibition of NOD1-driven NF-kB reporter – cell-based, luminescence, uHTS, primary screen (AID 1578); format: functional; conditions: Homo sapiens
[30] = test system: Streptococcus sp. 'group A'; experiment: Streptococcus pyogenes SK(-)GAS viability under kanamycin – luminescence, BacTiterGlo, confirmation, counter-screen for streptokinase expression inhibitor project, dose response (AID 1900); format: functional, organism-based
[31] = target: Exodeoxyribonuclease V (Escherichia coli (strain K12), UniProt P04993+P07648+P08394); experiment: RecBCD inhibition via phage-restricted bacterial growth – absorbance, V66 E. coli, mutant T4 phage, counter-screen for AddAB inhibitor project, dose response (AID 492957); format: functional, cell-based, Escherichia coli str. K-12 substr. MG1655
[32] = fluconazole-exposed Candida albicans growth modulators – fluorescence, retest, confirmation (AID 2467); format: functional, cell-based
[33] = target: T3, Heat shock factor protein 1 (Mus musculus, UniProt P38532); experiment: decrease of HSF1-responsive luciferase luminescence – cell-based, NIH3T3, dose retest, confirmation (AID 2382); format: functional;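 also: NIH3T3 fibroblasts with HSF1-driven luciferase reporter stressed by proteasome inhibitor MG132; luminescence from HSF1-driven luciferase expression after 8 hours of MG132 stress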
T3 sequence (P38532 whole entry): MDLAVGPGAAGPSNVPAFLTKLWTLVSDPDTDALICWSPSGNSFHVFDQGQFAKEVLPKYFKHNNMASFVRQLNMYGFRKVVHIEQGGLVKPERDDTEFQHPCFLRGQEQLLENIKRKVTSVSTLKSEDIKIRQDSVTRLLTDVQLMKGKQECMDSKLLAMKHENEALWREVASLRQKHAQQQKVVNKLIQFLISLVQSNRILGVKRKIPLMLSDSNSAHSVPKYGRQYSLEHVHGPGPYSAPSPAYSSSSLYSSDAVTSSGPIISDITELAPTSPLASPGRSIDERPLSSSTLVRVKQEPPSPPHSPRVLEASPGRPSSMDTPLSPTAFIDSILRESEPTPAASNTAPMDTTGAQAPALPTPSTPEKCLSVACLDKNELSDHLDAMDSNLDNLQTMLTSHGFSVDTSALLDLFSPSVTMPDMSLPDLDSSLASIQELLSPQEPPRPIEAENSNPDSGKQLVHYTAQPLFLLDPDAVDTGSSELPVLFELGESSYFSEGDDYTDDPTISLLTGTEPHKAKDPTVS

[34] = alpha-synuclein stem-loop luciferase translation blockers – H4 neuroglioma cells, luminescence, confirmation (AID 1988); format: functional, cell-based
[35] = test system: BJ; experiment: growth inhibition of engineered Ras-driven BJ cells – cell-based, alamar blue fluorescence, cherrypicked samples, dose response (AID 2631); format: functional; conditions: Homo sapiens;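 also: confirmatory dose-response assay in RAS-dependent BJ fibroblasts engineered with TERT, LT and ST, with cytotoxicity read by fluorescence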
[36] = test system: HEK293; experiment: NOD2 signaling inhibitors in MDP-stimulated cells, cell-based, uHTS, luminescence (AID 2001); format: functional; conditions: Homo sapiens
[37] = NIH-3T3 fibroblast cytotoxicity, dose response, cytotoxicity control, cell-based, fluorescence, Alamar Blue, secondary assay (AID 2327); format: functional;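 also: NIH-3T3 mouse fibroblasts cultured with fluconazole at 8 µg/mL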
[38] = target: T4, Streptokinase A (Streptococcus pyogenes serotype M1, UniProt P10520); experiment: viability-normalized secreted streptokinase activity reduction – plasminogen activation absorbance, OD405, dose response (AID 1914); format: functional, Streptococcus pyogenes M1 GAS;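 also: secreted streptokinase activity via plasminogen activation per viability signal from cell pellet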
T4 sequence (P10520 whole entry): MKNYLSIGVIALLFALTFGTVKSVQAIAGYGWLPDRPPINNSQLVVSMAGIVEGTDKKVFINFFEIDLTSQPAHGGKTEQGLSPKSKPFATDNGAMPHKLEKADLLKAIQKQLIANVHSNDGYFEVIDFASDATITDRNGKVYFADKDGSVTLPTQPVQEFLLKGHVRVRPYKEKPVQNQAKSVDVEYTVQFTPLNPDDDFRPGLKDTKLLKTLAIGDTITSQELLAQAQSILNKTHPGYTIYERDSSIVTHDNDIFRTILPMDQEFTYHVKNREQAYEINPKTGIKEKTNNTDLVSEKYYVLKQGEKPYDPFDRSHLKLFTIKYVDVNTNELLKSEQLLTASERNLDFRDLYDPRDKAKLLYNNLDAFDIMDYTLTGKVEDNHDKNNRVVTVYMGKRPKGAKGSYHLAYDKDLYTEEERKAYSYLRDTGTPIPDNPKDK

[39] = test system: BJ; experiment: cells; format: functional, cell-based; conditions: Homo sapiens
[40] = DRD fibroblast viability loss – cell-based, non-viral oncogenic, luminescence, dose response (AID 1934); format: functional; conditions: Homo sapiens
[41] = target: Nucleotide-binding oligomerization domain-containing protein 2 (Homo sapiens, UniProt Q9HC29); experiment: inhibition of NOD2-driven NF-kB reporter – cell-based, luminescence, uHTS, HEK293 (AID 1566); format: functional
[42] = luciferase reporter signal suppression in cells – H4 neuroglioma cells, luminescence, dose response (AID 1990); format: functional, cell-based
[43] = test system: BJ; experiment: BJ-TERT-LT-ST fibroblast viability loss – cell-based, RAS-independent, luminescence, dose response (AID 1935); format: functional; conditions: Homo sapiens;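 also: BJ fibroblasts immortalized with TERT plus LT and ST oncogenes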
[44] = test system: Jurkat; experiment: blockers of NF-kB activation in T cells – Jurkat, luciferase reporter, luminescence, B- and T-cell, dose response (AID 489004); format: functional, cell-based; conditions: Homo sapiens;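 also: NF-kB luciferase reporter Jurkat cells stimulated with PMA plus ionomycin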
[45] = cells; format: functional, cell-based; conditions: HEK-CNG
[46] = target: Galanin receptor type 3 (Homo sapiens, UniProt O60755); experiment: Fluorescence-based cell-based primary high throughput dose response assay to identify antagonists of the Galanin Receptor 3 (GalR3).; format: functional
[47] = HEK-293T viability loss, compound-treated – cell-based, uHTS hits, cytotoxicity control for B/T-cell NF-kB inhibitor project, dose response (AID 489019); format: functional;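 also: IC50 reflects cytotoxicity as loss of cell viability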

Sequence of Exodeoxyribonuclease V (P04993 whole entry): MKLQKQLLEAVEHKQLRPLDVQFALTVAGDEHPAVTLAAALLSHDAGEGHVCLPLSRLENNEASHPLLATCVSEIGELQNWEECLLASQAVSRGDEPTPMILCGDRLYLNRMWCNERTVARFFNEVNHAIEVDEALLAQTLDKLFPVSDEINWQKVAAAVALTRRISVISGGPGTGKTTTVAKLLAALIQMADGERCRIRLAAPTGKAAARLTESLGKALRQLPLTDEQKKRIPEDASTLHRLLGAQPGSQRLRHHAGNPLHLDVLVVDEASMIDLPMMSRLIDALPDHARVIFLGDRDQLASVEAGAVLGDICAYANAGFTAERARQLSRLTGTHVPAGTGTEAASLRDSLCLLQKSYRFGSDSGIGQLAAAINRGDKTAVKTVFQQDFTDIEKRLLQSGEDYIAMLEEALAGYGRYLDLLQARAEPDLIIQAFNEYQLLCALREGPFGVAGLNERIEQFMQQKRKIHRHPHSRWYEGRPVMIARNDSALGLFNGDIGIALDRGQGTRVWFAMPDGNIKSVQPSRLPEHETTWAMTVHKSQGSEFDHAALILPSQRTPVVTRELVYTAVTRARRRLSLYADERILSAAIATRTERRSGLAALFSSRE
Sequence of Exodeoxyribonuclease V (P07648 whole entry): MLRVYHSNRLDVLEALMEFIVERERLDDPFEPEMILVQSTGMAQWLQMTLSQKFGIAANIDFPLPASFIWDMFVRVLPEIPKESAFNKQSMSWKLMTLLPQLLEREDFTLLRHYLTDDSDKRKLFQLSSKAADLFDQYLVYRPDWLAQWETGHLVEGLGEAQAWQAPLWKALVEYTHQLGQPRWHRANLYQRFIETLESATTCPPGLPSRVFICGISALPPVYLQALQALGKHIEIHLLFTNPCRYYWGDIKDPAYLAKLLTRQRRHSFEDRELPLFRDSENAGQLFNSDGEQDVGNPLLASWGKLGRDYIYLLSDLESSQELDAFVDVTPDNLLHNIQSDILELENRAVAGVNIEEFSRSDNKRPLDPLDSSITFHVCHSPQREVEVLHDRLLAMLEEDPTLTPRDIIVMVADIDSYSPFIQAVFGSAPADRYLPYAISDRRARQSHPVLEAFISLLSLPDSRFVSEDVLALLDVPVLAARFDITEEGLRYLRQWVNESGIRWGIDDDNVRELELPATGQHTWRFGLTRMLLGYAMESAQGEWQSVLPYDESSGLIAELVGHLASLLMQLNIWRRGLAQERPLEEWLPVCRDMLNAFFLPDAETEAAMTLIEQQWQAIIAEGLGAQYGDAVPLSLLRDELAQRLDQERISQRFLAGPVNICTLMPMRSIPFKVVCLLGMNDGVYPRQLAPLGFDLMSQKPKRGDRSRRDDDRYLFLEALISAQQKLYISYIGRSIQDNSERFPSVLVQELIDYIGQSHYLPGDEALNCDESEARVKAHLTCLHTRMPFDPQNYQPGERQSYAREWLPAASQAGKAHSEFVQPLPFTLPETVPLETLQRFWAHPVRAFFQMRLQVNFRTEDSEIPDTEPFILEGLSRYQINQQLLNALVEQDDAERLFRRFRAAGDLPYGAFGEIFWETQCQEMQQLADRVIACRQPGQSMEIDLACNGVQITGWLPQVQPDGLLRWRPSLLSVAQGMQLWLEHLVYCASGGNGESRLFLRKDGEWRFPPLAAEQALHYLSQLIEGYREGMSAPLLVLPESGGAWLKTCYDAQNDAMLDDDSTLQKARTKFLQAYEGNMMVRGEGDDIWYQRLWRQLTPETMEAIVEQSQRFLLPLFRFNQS
Sequence of Exodeoxyribonuclease V (P08394 whole entry): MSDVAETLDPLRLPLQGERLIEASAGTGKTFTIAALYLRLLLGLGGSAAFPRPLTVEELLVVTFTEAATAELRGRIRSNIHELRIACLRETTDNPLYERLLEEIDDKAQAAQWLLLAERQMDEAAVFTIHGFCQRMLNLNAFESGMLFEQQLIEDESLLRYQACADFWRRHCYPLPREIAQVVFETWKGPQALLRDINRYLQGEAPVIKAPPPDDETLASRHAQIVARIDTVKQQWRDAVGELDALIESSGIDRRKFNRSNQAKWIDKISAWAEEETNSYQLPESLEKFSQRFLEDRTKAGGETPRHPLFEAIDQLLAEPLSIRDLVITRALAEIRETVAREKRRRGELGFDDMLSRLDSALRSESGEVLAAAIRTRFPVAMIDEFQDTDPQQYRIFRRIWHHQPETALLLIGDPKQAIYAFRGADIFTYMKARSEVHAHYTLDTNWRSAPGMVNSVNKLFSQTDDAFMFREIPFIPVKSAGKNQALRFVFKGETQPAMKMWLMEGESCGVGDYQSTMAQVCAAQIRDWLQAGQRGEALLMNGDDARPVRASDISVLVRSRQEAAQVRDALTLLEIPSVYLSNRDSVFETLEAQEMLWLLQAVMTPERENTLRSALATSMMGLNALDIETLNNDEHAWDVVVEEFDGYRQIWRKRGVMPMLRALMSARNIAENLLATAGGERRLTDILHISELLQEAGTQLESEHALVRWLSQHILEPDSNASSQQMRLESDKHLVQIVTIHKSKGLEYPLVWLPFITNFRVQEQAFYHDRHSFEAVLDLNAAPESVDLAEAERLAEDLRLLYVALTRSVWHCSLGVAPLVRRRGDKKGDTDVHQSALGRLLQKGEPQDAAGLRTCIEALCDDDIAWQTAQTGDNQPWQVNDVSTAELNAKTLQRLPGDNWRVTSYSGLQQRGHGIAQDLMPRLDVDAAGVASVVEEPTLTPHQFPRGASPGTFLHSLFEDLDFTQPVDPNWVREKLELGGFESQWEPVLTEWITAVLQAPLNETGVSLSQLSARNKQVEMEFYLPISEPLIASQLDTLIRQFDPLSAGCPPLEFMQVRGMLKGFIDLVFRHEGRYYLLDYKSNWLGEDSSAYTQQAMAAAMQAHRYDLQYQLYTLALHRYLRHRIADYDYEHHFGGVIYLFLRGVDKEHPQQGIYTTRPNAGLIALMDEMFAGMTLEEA
Sequence of Nucleotide-binding oligomerization domain-containing protein 1 (Q9Y239 whole entry, the tested form may be a part): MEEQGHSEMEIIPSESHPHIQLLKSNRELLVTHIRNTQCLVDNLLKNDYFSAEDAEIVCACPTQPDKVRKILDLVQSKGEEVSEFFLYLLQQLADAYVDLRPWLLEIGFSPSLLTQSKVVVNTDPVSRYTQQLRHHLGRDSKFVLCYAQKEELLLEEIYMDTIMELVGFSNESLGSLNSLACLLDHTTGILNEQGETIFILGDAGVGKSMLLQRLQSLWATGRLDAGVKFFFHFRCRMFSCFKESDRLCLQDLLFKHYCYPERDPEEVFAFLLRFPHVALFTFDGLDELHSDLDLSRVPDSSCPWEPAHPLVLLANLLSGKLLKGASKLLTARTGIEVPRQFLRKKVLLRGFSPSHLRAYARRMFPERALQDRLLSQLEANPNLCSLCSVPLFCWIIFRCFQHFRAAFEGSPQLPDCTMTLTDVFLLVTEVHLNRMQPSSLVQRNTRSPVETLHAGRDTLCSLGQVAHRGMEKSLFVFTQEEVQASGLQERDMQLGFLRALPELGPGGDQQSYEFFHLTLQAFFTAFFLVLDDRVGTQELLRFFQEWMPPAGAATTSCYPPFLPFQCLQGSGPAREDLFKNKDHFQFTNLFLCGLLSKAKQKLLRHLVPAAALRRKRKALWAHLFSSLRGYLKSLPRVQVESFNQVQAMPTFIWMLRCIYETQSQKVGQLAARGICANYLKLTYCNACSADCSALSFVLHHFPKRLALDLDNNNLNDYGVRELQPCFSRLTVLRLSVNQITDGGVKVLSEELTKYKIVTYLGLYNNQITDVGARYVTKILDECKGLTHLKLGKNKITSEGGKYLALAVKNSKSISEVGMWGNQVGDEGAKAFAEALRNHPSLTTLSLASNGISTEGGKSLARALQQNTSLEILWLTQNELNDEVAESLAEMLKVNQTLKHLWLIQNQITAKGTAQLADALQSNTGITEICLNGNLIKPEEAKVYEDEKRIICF
Sequence of Disintegrin and metalloproteinase domain-containing protein 17 (P78536 whole entry, the tested form may be a part): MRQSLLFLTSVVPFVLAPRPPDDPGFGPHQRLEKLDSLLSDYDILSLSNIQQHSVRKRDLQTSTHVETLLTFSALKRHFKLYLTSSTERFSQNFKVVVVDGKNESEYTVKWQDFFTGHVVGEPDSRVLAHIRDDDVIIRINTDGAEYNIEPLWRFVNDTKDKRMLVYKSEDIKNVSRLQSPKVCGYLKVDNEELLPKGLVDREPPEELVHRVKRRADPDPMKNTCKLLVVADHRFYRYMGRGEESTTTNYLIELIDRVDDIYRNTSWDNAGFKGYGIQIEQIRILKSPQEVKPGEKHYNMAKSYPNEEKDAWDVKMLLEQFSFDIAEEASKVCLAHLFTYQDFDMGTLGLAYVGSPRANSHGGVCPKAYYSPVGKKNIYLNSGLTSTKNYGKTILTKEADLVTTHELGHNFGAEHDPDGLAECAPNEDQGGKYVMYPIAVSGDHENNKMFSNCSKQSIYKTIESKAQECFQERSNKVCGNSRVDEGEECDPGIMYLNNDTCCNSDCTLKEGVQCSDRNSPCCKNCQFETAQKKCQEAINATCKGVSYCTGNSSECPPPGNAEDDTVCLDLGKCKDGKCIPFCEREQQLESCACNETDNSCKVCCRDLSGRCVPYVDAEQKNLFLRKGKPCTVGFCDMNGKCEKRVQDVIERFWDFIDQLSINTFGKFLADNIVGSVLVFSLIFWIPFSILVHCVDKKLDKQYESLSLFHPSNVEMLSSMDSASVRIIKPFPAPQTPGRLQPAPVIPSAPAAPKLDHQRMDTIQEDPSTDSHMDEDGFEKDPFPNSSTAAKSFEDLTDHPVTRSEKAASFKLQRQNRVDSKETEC
Sequence of Tumor necrosis factor (P01375 whole entry): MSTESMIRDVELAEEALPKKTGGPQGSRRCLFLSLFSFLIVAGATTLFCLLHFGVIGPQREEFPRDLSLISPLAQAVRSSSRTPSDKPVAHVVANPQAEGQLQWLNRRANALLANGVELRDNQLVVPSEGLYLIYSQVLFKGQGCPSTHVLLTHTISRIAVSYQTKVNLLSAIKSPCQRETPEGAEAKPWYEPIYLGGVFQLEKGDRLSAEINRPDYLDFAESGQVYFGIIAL

CO[C@H]1/C=C\O[C@@]2(C)Oc3c(C)c(O)c4c(O)c(c5c(c4c3C2=O)=NC2(CCN(CC(C)C)CC2)N=5)NC(=O)/C(C)=C\C=C/[C@H](C)[C@H](O)[C@@H](C)[C@@H](O)[C@@H](C)[C@H](OC(C)=O)[C@@H]1C
active: AC50 [1] 15.9 µM

O=C(CSc1nc(O)c2c(-c3ccccc3)csc2n1)NC1CCCCC1
inactive: IC50 [2] > 20 µM | IC50 [3] > 20 µM | IC50 [4] > 20 µM

COc1ccccc1NC(=O)CN(c1ccc(C23CC4CC(CC(C4)C2)C3)cc1)S(C)(=O)=O
active: AC50 [5] 40.9 µM | AC50 [6] 8.59 µM | AC50 [7] 3.45 µM | AC50 [8] 4.49 µM | AC50 [10] 8.12 µM | AC50 [12] 4.53 µM | AC50 [13] 47 µM
inactive: IC50 [9] > 69.5 µM | IC50 [11] > 69.5 µM

CCOC(=O)C(NC(C)=O)(Nc1ccc(F)cc1)C(F)(F)F (stereo not given)
active: AC50 [1] 74.8 µM | AC50 [14] 36.2 µM

Cn1ncc(Cl)c1C(=O)NCc1ccc(Cl)cc1
active: AC50 [14] 22.7 µM

COc1ccc(-n2c(=O)nc(NCCc3cccc(Cl)c3)[nH]c2=O)cc1
inactive: IC50 [16] > 100 µM | IC50 [18] > 100 µM
> 100 µM (not active): IC50 [15] | IC50 [17]

Cc1ccc(C(C)C)c(OCc2ccc(C(=O)N/N=C/c3cccc(O)c3O)cc2)c1
active: EC50 [19] 6.18 µM | IC50 [20] 1.67 µM | EC50 [21] 9.95 µM | EC50 [22] 5.32 µM | AC50 [23] 4.01 µM | EC50 [24] 0.979 µM | IC50 [25] 1.16 µM | EC50 [30] 1.87 µM | EC50 [32] 0.928 µM | AC50 [8] 0.832 µM | EC50 [33] 1.24 µM | EC50 [34] 0.976 µM | EC50 [35] 0.533 µM | EC50 [37] 3.17 µM | EC50 [39] 2.58 µM | EC50 [40] 4.88 µM | EC50 [42] 0.54 µM | EC50 [43] 7.23 µM
> 350 µM (not active): EC50 [28]
> 150 µM (not active): EC50 [38]
inactive: IC50 [26] > 119 µM | IC50 [27] > 20 µM | EC50 [29] > 20 µM | IC50 [31] > 119 µM | IC50 [36] > 20 µM | EC50 [41] > 20 µM

COc1cc2c(cc1OC)[C@@H]1C(=O)c3ccc4c(c3O[C@@H]1CO2)C[C@H](C(C)C)O4
active: IC50 [46] 0.0154 µM
inactive: IC50 [44] > 80 µM | EC50 [45] > 29.9 µM | IC50 [47] > 80 µM
